Assay results published in patent publication US20020128269A1, “Substituted heterocyclic compounds for treating multidrug resistance” (priority 2000, published 2002).

System: NIH-MDR1-G185 cells
Test: Fluorescent Substrate Accumulation Assay (BODIPY-FL Taxol accumulation)
Format: cell-based
Conditions: fluorescence in NIH-MDR1-G185 cells in presence / absence of modulator; BODIPY-FL Taxol 500 nM, 40 min at 37° C; modulator final concentration of 10 microliters (so in the source)
Experimental: NIH-MDR1-G185 cells (obtained from M. Gottesman, NIH) were harvested and resuspended in RPMI-1640 containing L-glutamine, 10% Cosmic Calf Serum and penicillin-streptomycin. Cell suspension aliquots of 175 microliters (1×10^5 cells) were added to individual wells of a 96 well microtiter plate and preincubated for 15 min at 37° C with 20 microliters MDR modulator diluted in cell culture media to give a final concentration of 10 microliters. Control wells received no modulating agent. BODIPY-FL Taxol (Molecular Probes, Eugene, Oreg.) was added to each well in 10 microliter aliquots to give a final concentration of 500 nM and cells were incubated for 40 min at 37° C. Cells were centrifuged at 100× g for 5 min at 4° C. and the cell pellet washed with 200 microliters cold PBS to remove fluorescent medium from wells. Cells were centrifuged once more, media removed, and cells resuspended in 200 microliters cold PBS. Fluorescence accumulation was measured in a fluorescence plate reader fitted with an excitation filter of 485 nm and an emission filter of 538 nm. BODIPY-FL taxol accumulation in the cells was calculated as follows:
Accumulation Index=(fluorescence in NIH-MDR1-G185 cells in the presence of modulator )/(fluorescence in NIH-MDR1-G185 cells in absence of modulator)
Accumulation Index of various compounds prepared above was tested according to the method in Reference Example 3.

## O=C(NC(CCCc1ccccc1)CCCc1ccccc1)C1CN(C[C@@H](O)COc2cccc3ncccc23)CCN1C(=O)COCc1ccccc1 (stereo partly drawn) [Compound 38, 1-(Benzyloxyacetyl)-4-{1-[2-(R)-hydroxy-3-(quinolin-5-yloxy)-propyl]}-piperazine-2-carboxylic Acid [4-phenyl-1-(3-phenyl-propyl)-butyl]-amide]
  Accumulation Index: 5
